Laboratory results reported in PMC4138601 (Analytical and bioanalytical chemistry, 2012).

Assays:
[1] = biological target: T1, Sphingomyelinase from human placenta (human L-ASM) (Homo sapiens, UniProt P17405); test: SMase assay with natural substrate sphingomyelin; type: biochemical; settings: maximal inhibition; for Maximal resp., natural substrate (pH 5.0): pH 5.0 buffer; for Maximal resp., natural substrate (pH 6.5): pH 6.5 buffer
T1 sequence (P17405 47-631): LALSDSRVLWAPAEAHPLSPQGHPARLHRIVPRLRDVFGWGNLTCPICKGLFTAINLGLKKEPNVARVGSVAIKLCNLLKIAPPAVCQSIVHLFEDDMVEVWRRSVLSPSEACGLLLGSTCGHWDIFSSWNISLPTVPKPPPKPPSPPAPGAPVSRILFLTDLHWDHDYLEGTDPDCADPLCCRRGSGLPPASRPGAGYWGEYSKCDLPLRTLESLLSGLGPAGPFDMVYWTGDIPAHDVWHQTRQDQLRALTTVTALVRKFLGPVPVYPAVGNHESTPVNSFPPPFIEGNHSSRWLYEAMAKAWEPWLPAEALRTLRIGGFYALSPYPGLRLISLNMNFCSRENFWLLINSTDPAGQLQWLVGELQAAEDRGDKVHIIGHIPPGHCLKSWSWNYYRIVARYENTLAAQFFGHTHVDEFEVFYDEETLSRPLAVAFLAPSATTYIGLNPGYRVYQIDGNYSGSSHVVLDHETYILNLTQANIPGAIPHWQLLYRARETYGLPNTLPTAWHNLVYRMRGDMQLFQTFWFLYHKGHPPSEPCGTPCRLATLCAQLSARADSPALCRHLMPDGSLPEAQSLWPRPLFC

[2] = biological target: T1, Sphingomyelinase from human placenta (human L-ASM); test: SMase assay using HMU-PC profluorescence substrate; type: biochemical; settings: maximal inhibition, artificial substrate HMU-PC

## COC(=O)C1=C(C)N(Cc2ccc(C)cc2)C(=O)/C1=C\c1ccc(O)c(OC)c1 [MLS000574110]
[1]
  Maximal resp., natural substrate (pH 5.0): 79.1%
  Maximal resp., natural substrate (pH 6.5): 84.8%
[2]
  Maximal resp., HMU-PC substrate (pH 5.0): 82.1%

## COc1ccc(C2=NN(C(=O)COC(=O)c3ccc(S(C)(=O)=O)c([N+](=O)[O-])c3)C(c3ccco3)C2)cc1 (stereo not drawn) [MLS002248315]
[1]
  Maximal resp., natural substrate (pH 5.0): 0.8%
  Maximal resp., natural substrate (pH 6.5): 8.6%
[2]
  Maximal resp., HMU-PC substrate (pH 5.0): 31.4%

## O=C1CC(c2ccccc2)CC(=O)C1CS(=O)(=O)c1ccccc1 (stereo not drawn) [MLS000720877]
[1]
  Maximal resp., natural substrate (pH 5.0): 31.1%
  Maximal resp., natural substrate (pH 6.5): 61.6%
[2]
  Maximal resp., HMU-PC substrate (pH 5.0): 99.2%

## CCS(=O)(=O)C1=NN2C(=N)/C(=C\c3ccc(OC(=O)c4ccco4)cc3)C(=O)N=C2S1 [MLS000950682]
[1]
  Maximal resp., natural substrate (pH 5.0): 43.4%
  Maximal resp., natural substrate (pH 6.5): 71.2%
[2]
  Maximal resp., HMU-PC substrate (pH 5.0): 79.0%

## COc1cc(C(=O)Nc2scc(-c3ccc(Br)cc3)c2C(=O)O)cc(OC)c1OC [MLS001164606]
[1]
  Maximal resp., natural substrate (pH 5.0): 9.1%
  Maximal resp., natural substrate (pH 6.5): 26.8%
[2]
  Maximal resp., HMU-PC substrate (pH 5.0): 51.8%

## O=c1c(O)c(-c2cccs2)oc2ccccc12 [MLS000097140]
[1]
  Maximal resp., natural substrate (pH 5.0): 81.7%
  Maximal resp., natural substrate (pH 6.5): 82.7%
[2]
  Maximal resp., HMU-PC substrate (pH 5.0): 6.2%

## O=S(=O)(Nc1ccc(N=Nc2ccc(O)c3ccccc23)cc1)c1ccccc1 [MLS000707545]
[1]
  Maximal resp., natural substrate (pH 5.0): 72.0%
  Maximal resp., natural substrate (pH 6.5): 77.2%
[2]
  Maximal resp., HMU-PC substrate (pH 5.0): 93.4%

## S=c1nc(C2CC2)[nH]c2ccccc12 [MLS000097294]
[1]
  Maximal resp., natural substrate (pH 5.0): 103.2%
  Maximal resp., natural substrate (pH 6.5): 104.4%
[2]
  Maximal resp., HMU-PC substrate (pH 5.0): 99.1%

## Clc1ccc(SCCOCCN2CCCCCC2)cc1.O=C(O)C(=O)O [MLS001164567]
[1]
  Maximal resp., natural substrate (pH 5.0): 97.8%
  Maximal resp., natural substrate (pH 6.5): 100.7%
[2]
  Maximal resp., HMU-PC substrate (pH 5.0): 15.8%
